The text below walks through data of doi:10.1101/2021.10.07.463234v2 (biorxiv, 2021).

Counter-ions that a name gives are not always drawn.

The target of one assay is SARS-CoV-2 Mac1 (Severe acute respiratory syndrome coronavirus 2, UniProt P0DTD1). As to the kind of experiment: biochemical. To be noted: 100 µM; inhibitor.
For orientation: %inhibition means the percentage by which the read-out fell short of the control. Read a low %inhibition as a weak effect. Turning to `CCOCCn1c(N2CCCN(C)CC2)nc2ccccc21` [Emedastine Difumarate], the “%inhibition” value is on record as 0.198%.

Regarding `CCOCCn1c(N2CCCN(C)CC2)nc2ccccc21` [Emedastine], the “%inhibition” value is 0%.

For the compound `CCn1cc(C(=O)O)c(=O)c2cc(F)c(N3CCNCC3)nc21` [Enoxacin Sesquihydrate], the “%inhibition” value is reported as 0%.

With `CCn1cc(C(=O)O)c(=O)c2cc(F)c(N3CCNCC3)nc21` [Enoxacin], the “%inhibition” value is 29.69%.

For `C=C1[C@H](CO)[C@@H](O)C[C@@H]1n1cnc2c(=O)[nH]c(N)nc21` [Entecavir Hydrate], the “%inhibition” value worked out at 11.65%.

Turning to `C=C1[C@H](CO)[C@@H](O)C[C@@H]1n1cnc2c(=O)[nH]c(N)nc21` [Entecavir], the “%inhibition” value is recorded as 0%.

Take `CNC[C@H](O)c1ccc(O)c(O)c1` [Epinephrine HCl]: the “%inhibition” value is 5.697%.

As to `C#Cc1cccc(Nc2ncnc3cc(OCCOC)c(OCCOC)cc23)c1` [Erlotinib HCl (OSI-744)], the “%inhibition” value is 12.32%.

On to `C#Cc1cccc(Nc2ncnc3cc(OCCOC)c(OCCOC)cc23)c1` [Erlotinib], for which the “%inhibition” value worked out at 10.85%.

As for `CC[C@H]1OC(=O)[C@H](C)[C@@H](O[C@H]2C[C@@](C)(OC)[C@@H](O)[C@H](C)O2)[C@H](C)[C@@H](O[C@@H]2O[C@H](C)C[C@H](N(C)C)[C@H]2O)[C@](C)(O)C[C@@H](C)C(=O)[C@H](C)[C@@H](O)[C@]1(C)O` [Erythromycin thiocyanate], the “%inhibition” value is 1.029%.

`CC[C@H]1OC(=O)[C@H](C)[C@@H](O[C@H]2C[C@@](C)(OC)[C@@H](O)[C@H](C)O2)[C@H](C)[C@@H](O[C@@H]2O[C@H](C)C[C@H](N(C)C)[C@H]2O)[C@](C)(O)C[C@@H](C)C(=O)[C@H](C)[C@@H](O)[C@]1(C)O` [Erythromycin]: the “%inhibition” value turned out to be 0%.

On to `COc1ccc2[nH]c([S@@+]([O-])Cc3ncc(C)c(OC)c3C)nc2c1` [Esomeprazole sodium], for which the “%inhibition” value came to 0%.

Still in this assay, the particulars now being: read-out: %inhibition.
One may read the inhibition as how much of the control response was suppressed. For `OC[C@H]1O[C@@H](c2ccc(Cl)c(Cc3ccc(O[C@H]4CCOC4)cc3)c2)[C@H](O)[C@@H](O)[C@@H]1O` [Empagliflozin (BI 10773)], the inhibition at 100 µM was found to be 0%.

As for `C[C@H](NC(=O)C(=O)Nc1ccccc1C(C)(C)C)C(=O)N[C@@H](CC(=O)O)C(=O)COc1c(F)c(F)cc(F)c1F` [Emricasan], the inhibition at 100 µM was 21%.

`Nc1nc(=O)n([C@@H]2CS[C@H](CO)O2)cc1F` [Emtricitabine]: the inhibition at 100 µM worked out at 0%.

`CCOC(=O)[C@H](CCc1ccccc1)N[C@@H](C)C(=O)N1CCC[C@H]1C(=O)O` [Enalapril Maleate]: the inhibition at 100 µM turned out to be 16.8%.

For `C[C@H](N[C@@H](CCc1ccccc1)C(=O)O)C(=O)N1CCC[C@H]1C(=O)O` [Enalaprilat Dihydrate], the inhibition at 100 µM was found to be 10.6%.

As to `CC(C)(O)CNc1nc(Nc2ccnc(C(F)(F)F)c2)nc(-c2cccc(C(F)(F)F)n2)n1` [Enasidenib (AG-221)], the inhibition at 100 µM amounted to 6.78%.

With `COC(=O)N[C@@H](C)CNc1nccc(-c2cn(C(C)C)nc2-c2cc(Cl)cc(NS(C)(=O)=O)c2F)n1` [Encorafenib (LGX818)], the inhibition at 100 µM was found to be 10.8%.

Take `CC1(C)[C@@H](O)CC[C@]2(C)[C@H]3C(=O)C=C4[C@@H]5C[C@@](C)(C(=O)O)CC[C@]5(C)CC[C@@]4(C)[C@]3(C)CC[C@@H]12` [Enoxolone]: the inhibition at 100 µM came to 0%.

Take `CCN1CCN(c2cc3c(cc2F)c(=O)c(C(=O)O)cn3C2CC2)CC1` [Enrofloxacin]: the inhibition at 100 µM stood at 16.9%.

`CCN(CC)C(=O)/C(C#N)=C/c1cc(O)c(O)c([N+](=O)[O-])c1` [Entacapone]: the inhibition at 100 µM worked out at 0%.

Consider `Nc1ccccc1NC(=O)c1ccc(CNC(=O)OCc2cccnc2)cc1` [Entinostat (MS-275)], for which the inhibition at 100 µM stood at 33.3%.

In the case of `c1cn2cc(-c3ccc4cn[nH]c4c3)nc(Nc3ccc(N4CCOCC4)cc3)c2n1` [Entospletinib (GS-9973)], the inhibition at 100 µM is 29.5%.

Regarding `CN1CCN(c2ccc(C(=O)Nc3n[nH]c4ccc(Cc5cc(F)cc(F)c5)cc34)c(NC3CCOCC3)c2)CC1` [Entrectinib (RXDX-101)], the inhibition at 100 µM is 8.59%.

Take `Cn1cc(C2=C(c3cn(C4CCN(Cc5ccccn5)CC4)c4ccccc34)C(=O)NC2=O)c2ccccc21` [Enzastaurin (LY317615)]: the inhibition at 100 µM is 34.6%.

Turning to `NS(=O)(=O)NCCNc1nonc1/C(=N/O)Nc1ccc(F)c(Br)c1` [Epacadostat (INCB024360)], the inhibition at 100 µM amounted to 14.8%.

For the compound `CC(/C=C1\SC(=S)N(CC(=O)O)C1=O)=C\c1ccccc1` [Epalrestat], the inhibition at 100 µM is 0%.

For `CCc1ccc(C(=O)C(C)CN2CCCCC2)cc1` (stereo not shown) [Eperisone hydrochloride], the inhibition at 100 µM was 10.4%.

`NC1=NCC2c3ccccc3Cc3ccccc3N12` (stereo not shown) [Epinastine HCl]: the inhibition at 100 µM turned out to be 4.62%.

As to `CNC[C@H](O)c1ccc(O)c(O)c1` [Epinephrine bitartrate], the inhibition at 100 µM stood at 10.7%.

With `COc1cccc2c1C(=O)c1c(O)c3c(c(O)c1C2=O)C[C@@](O)(C(=O)CO)C[C@@H]3O[C@H]1C[C@H](N)[C@@H](O)[C@H](C)O1` [Epirubicin HCl], the inhibition at 100 µM is 51.4%.

On to `COC(=O)[C@@H]1CC2=CC(=O)CC[C@]2(C)[C@@]23O[C@@H]2C[C@@]2(C)[C@@H](CC[C@@]24CCC(=O)O4)[C@H]13` [Eplerenone], for which the inhibition at 100 µM came out at 3.58%.

For the compound `CCOC(CN1CCN(CC(C)C(=O)c2ccccc2)CC1)c1ccccc1` (stereo not shown) [Eprazinone 2HCl], the inhibition at 100 µM was determined as 0%.

For the compound `O=S(=O)(O)CCCS(=O)(=O)O` [Eprodisate disodium], the inhibition at 100 µM turned out to be 0%.

For the compound `CCCCc1ncc(/C=C(\Cc2cccs2)C(=O)O)n1Cc1ccc(C(=O)O)cc1` [Eprosartan Mesylate], the inhibition at 100 µM came out at 26.7%.

`O=C(O)CSCC(=O)NC1CCSC1=O` (stereo not shown) [Erdosteine]: the inhibition at 100 µM amounted to 12.3%.

As for `C[C@@H](O)[C@H]1C(=O)N2C(C(=O)O)=C(S[C@@H]3CN[C@H](C(=O)Nc4cccc(C(=O)O)c4)C3)[C@H](C)[C@H]12` [Ertapenem sodium], the inhibition at 100 µM was determined as 2.44%.

As to `CCOc1ccc(Cc2cc([C@]34OC[C@](CO)(O3)[C@@H](O)[C@H](O)[C@H]4O)ccc2Cl)cc1` [Ertugliflozin], the inhibition at 100 µM was 26.2%.

As to `CCOC(=O)CCC(=O)O[C@H]1[C@H](O[C@@H]2[C@@H](C)[C@H](O[C@H]3C[C@@](C)(OC)[C@@H](O)[C@H](C)O3)[C@@H](C)C(=O)O[C@H](CC)[C@@](C)(O)[C@H](O)[C@@H](C)C(=O)[C@H](C)C[C@@]2(C)O)O[C@H](C)C[C@@H]1N(C)C` [Erythromycin Ethylsuccinate], the inhibition at 100 µM was found to be 0%.

With `C/C=C(\C)C(=O)O[C@H]1[C@H](OC(C)=O)[C@@]2(CO)C(CC1(C)C)C1=CCC3[C@@]4(C)CCC(O[C@@H]5O[C@H](C(=O)O)[C@@H](O[C@@H]6O[C@H](CO)[C@@H](O)[C@H](O)[C@H]6O)[C@H](O)[C@H]5O[C@@H]5O[C@H](CO)[C@@H](O)[C@H](O)[C@H]5O)[C@](C)(CO)C4CC[C@@]3(C)[C@]1(C)C[C@H]2O` (stereo partly shown) [Escin], the inhibition at 100 µM was determined as 6.9%.

`CN(C)CCC[C@@]1(c2ccc(F)cc2)OCc2cc(C#N)ccc21` [Escitalopram Oxalate]: the inhibition at 100 µM amounted to 0%.

`CC(=O)O[C@H]1Cc2ccccc2N(C(N)=O)c2ccccc21` [Eslicarbazepine Acetate]: the inhibition at 100 µM was 0%.

As for `COC(=O)CCc1ccc(OCC(O)CNC(C)C)cc1` (stereo not shown) [Esmolol HCl], the inhibition at 100 µM came out at 12%.

For the compound `C[C@]12CC[C@@H]3c4ccc(OC(=O)c5ccccc5)cc4CC[C@H]3[C@@H]1CC[C@@H]2O` [Estradiol Benzoate], the inhibition at 100 µM was determined as 20.5%.

For the compound `C[C@]12CC[C@@H]3c4ccc(O)cc4CC[C@H]3[C@@H]1CC[C@@H]2OC(=O)CCC1CCCC1` [Estradiol Cypionate], the inhibition at 100 µM turned out to be 0%.

As to `CCCCC(=O)O[C@H]1CC[C@H]2[C@@H]3CCc4cc(O)ccc4[C@H]3CC[C@]12C` [Estradiol valerate], the inhibition at 100 µM came out at 3.33%.

With `C[C@]12CC[C@@H]3c4ccc(O)cc4CC[C@H]3[C@@H]1CC[C@@H]2O` [Estradiol], the inhibition at 100 µM amounted to 0%.

For `C[C@]12CC[C@@H]3c4ccc(O)cc4CC[C@H]3[C@@H]1C[C@@H](O)[C@@H]2O` [Estriol], the inhibition at 100 µM is 0%.

As for `C[C@]12CC[C@@H]3c4ccc(O)cc4CC[C@H]3[C@@H]1CCC2=O` [Estrone], the inhibition at 100 µM stood at 0%.

Regarding `C[C@]12CC[C@@H]3c4ccc(OS(=O)(=O)O)cc4CC[C@H]3[C@@H]1CCC2=O` [Estropipate], the inhibition at 100 µM is 8.24%.

Consider `CCOc1ccc2nc3cc(N)ccc3c(N)c2c1` [Ethacridine lactate monohydrate], for which the inhibition at 100 µM amounted to 25.8%.

`CC[C@@H](CO)NCCN[C@@H](CC)CO` [Ethambutol 2HCl]: the inhibition at 100 µM was 7.53%.

For `O=S(=O)(O)c1cc(O)ccc1O` [Ethamsylate], the inhibition at 100 µM was determined as 0%.

Consider `C#C[C@]1(O)CC[C@H]2[C@@H]3CCc4cc(O)ccc4[C@H]3CC[C@@]21C` [Ethinyl Estradiol], for which the inhibition at 100 µM is 0%.

In the case of `CCc1cc(C(N)=S)ccn1` [Ethionamide], the inhibition at 100 µM stood at 19.8%.

`CCC1(C)CC(=O)NC1=O` (stereo not shown) [Ethosuximide]: the inhibition at 100 µM stood at 0%.

In the case of `CCOC(=O)c1ccc(O)cc1` [Ethylparaben], the inhibition at 100 µM came to 2.11%.

`C#C[C@]1(OC(C)=O)CC[C@H]2[C@@H]3CCC4=C[C@@H](OC(C)=O)CC[C@@H]4[C@H]3CC[C@@]21C` [Ethynodiol diacetate]: the inhibition at 100 µM is 0%.

For `CC(O)(P(=O)(O)O)P(=O)(O)O` [Etidronate], the inhibition at 100 µM stood at 0%.

For `CCc1cccc2c3c([nH]c12)C(CC)(CC(=O)O)OCC3` (stereo not shown) [Etodolac], the inhibition at 100 µM worked out at 0%.

Take `CC(C)(Oc1ccc(Cl)cc1)C(=O)OCCOC(=O)c1cccnc1` [Etofibrate]: the inhibition at 100 µM came to 4.59%.

Consider `CCOC(=O)c1cncn1[C@H](C)c1ccccc1` [Etomidate], for which the inhibition at 100 µM came to 8.82%.

`C#C[C@]1(O)CC[C@H]2[C@@H]3CCC4=CC(=O)CC[C@@H]4[C@H]3C(=C)C[C@@]21CC` [Etonogestrel]: the inhibition at 100 µM amounted to 0%.
